Laboratory results taken from US6828350B1, “Modulators of cysteine protease” (Exegenics Inc., priority 1997, dated 2004).
“And” between values parts separate entries of the source, which are not always exact repeats. Equal entries are not always repeated.

What was measured:
HRV 14 = test: Antiviral assay, XTT method, HRV 14; assay type: cell-based; details: HRV 14
HRV 16 = test: Antiviral assay, XTT method, HRV 16; assay type: cell-based; details: HRV 16
HRV 1A = test: Antiviral assay, XTT method, HRV 1A; assay type: cell-based
Hl-Hela cells = test: Cytotoxicity by XTT assay (treated, mock-infected cells); details: read-out: TC50; Format 1; concentration that retards cell growth by 50%, mock-infected Hl-Hela cells
HRV 1B = test: Antiviral assay, XTT method, HRV 1B; assay type: cell-based; details: HRV 1B; Format 2
Apopain (caspase-3) = molecular target: T1, Apopain (caspase-3) (Homo sapiens, UniProt P42574); test: Apopain (Caspase-3) Regulation Assay (FluorAce Apopain Assay Kit); assay type: biochemical; details: Apopain modulation: Inhibitor or Activator
T1 construct: purchased Bio-rad FluorAce Apopain Assay Kit (booklet 4100119)
T1 sequence (P42574 29-175 limits assumed): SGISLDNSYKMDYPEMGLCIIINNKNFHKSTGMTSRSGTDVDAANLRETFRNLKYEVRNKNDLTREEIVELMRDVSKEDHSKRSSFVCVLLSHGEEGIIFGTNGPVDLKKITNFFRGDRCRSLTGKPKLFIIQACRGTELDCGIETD
T1 sequence (P42574 176-277 limits assumed): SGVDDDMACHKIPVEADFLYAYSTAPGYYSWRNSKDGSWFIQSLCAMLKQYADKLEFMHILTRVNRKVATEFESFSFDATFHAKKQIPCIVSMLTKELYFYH
Protocol: VI: Apopain (Caspase-3) Regulation Assay
The FluorAce™ Apopain Assay Kit (Bio-rad) was employed in multiwell format. Compounds assayed were diluted 5-fold in distilled water (from stock solutions in ethanol or DMSO) and centrifuged (5′, 14K rpm). 10 μL of the supernatant was further diluted in wells containing 100 μL distilled water and 40 μL 6×Buffer (41.7 mM PIPES, pH 7.4, 8.3 mM EDTA, 0.42% CHAPS, 20.8 mM DTT). This process was carried out twice to yield duplicate wells for each compound. Control wells were prepared by addition of EtOH and DMSO (5-fold diluted in distilled water) into wells containing 6×Buffer and distilled water (40 μL and 100 μL, respectively), to form 8 wells with each solvent. Enzyme (stock solution 10-fold diluted in distilled water, see Bio-rad booklet 4100119) was added to one set of compound-containing cells and to 8 control wells (4 with ethanol and 4 with DMSO). The plate was preincubated for ˜80′ at 27°-28° C. Substrate (Z-DEVD-AFC, 490 μM, 40 μL) was then added to all wells. The plate was left at room temperature and fluorescence (360/40↑530/20↓) was measured at several time points (FL500 fluorimetric reader, Bio-tek instruments). Fluorescence at enzyme-containing wells was background-subtracted at each time point and initial rates were determined by linear regression (typically R^2>0.97). Percentage inhibition and activation was determined by relating the slope with compound to the control slope (with appropriate solvent). IC50 values are extrapolated.

[1] = Cytotoxicity by XTT assay (treated, mock-infected cells); details: human, H1-HeLa cells (ATCC), mock-infected
3C protease = details: background, in words; cited from earlier work
[2] = Format 1, restores 50% of viral-caused decrease in cell viability

Structure (SMILES): CC(=O)c1cc(Cl)cc([N+](=O)[O-])c1O [compound 31]
- IC50 (HRV 14; [2]): 14 µM
- IC50 (HRV 14; Format 2): 11 ± 1 µM
- IC50 (HRV 16; Format 2): 35 ± 26 µM
- IC50 (HRV 1A; Format 2): 80 ± 62 µM
- CC50 (Hl-Hela cells): 12 ± 1 µM

Structure (SMILES): O=Cc1cc(Cl)cc(Cl)c1O [compound 33]
- IC50 (HRV 14; Format 2): 14 ± 3 µM
- IC50 (HRV 16; Format 2): 6 ± 1 µM
- IC50 (HRV 1A; Format 2): 9 ± 1 µM
- IC50 (HRV 1B): 4 ± 1 µM
- Activity (Apopain (caspase-3)): Inhibitor

Structure (SMILES): O=Cc1c(O)cc(O)cc1O [compound 34]
- IC50 (HRV 14; [2]): 94 µM
- CC50 (Hl-Hela cells): 410 ± 30 µM

Structure (SMILES): CC(=O)c1c(O)ccc2ccccc12 [compound 35]
- IC50 (HRV 14; [2]): 62 µM
- IC50 (HRV 14; Format 2): 42 ± 20 µM
- IC50 (HRV 16; Format 2): 38 ± 14 µM
- IC50 (HRV 1A; Format 2): 630 ± 470 µM
- IC50 (HRV 1B): 240 ± 140 µM
- CC50 (Hl-Hela cells): 180 ± 10 µM

Structure (SMILES): CCC(=O)c1cc(O)ccc1O [compound 36]
- IC50 (HRV 14; [2]): 27 µM
- IC50 (HRV 14; Format 2): 32 ± 4 µM
- IC50 (HRV 16; Format 2): 44 ± 15 µM
- CC50 (Hl-Hela cells): 1720 ± 660 µM

Structure (SMILES): COc1ccc(O)c(C(C)=O)c1 [compound 37]
- IC50 (HRV 14; [2]): 146 µM
- IC50 (HRV 14; Format 2): 220 ± 23 µM
- IC50 (HRV 16; Format 2): 149 ± 148 µM
- IC50 (HRV 1A; Format 2): 830 ± 330 µM
- IC50 (HRV 1B): 610 ± 160 µM
- Activity (Apopain (caspase-3)): Inhibitor
- CC50 [1]: > 1250 µM

Structure (SMILES): CC(=O)c1cc(Br)cc(Br)c1O [compound 38]
- IC50 (HRV 14; [2]): 26 µM
- IC50 (HRV 14; Format 2): 10 ± 2 µM
- IC50 (HRV 16; Format 2): 6 ± 2 µM
- CC50 (Hl-Hela cells): 59 ± 4 µM

Structure (SMILES): CC(=O)c1cc(Cl)c(C)cc1O [compound 41]
- IC50 (HRV 14; Format 2): 160 ± 70 µM

Structure (SMILES): O=C(CCc1ccccc1)c1ccccc1O [compound 42]
- IC50 (HRV 14; Format 2): 120 ± 40 µM
- IC50 (HRV 1A; Format 2): 210 ± 70 µM
- IC50 (HRV 1B): 29 ± 1 µM

Structure (SMILES): O=Cc1cc([N+](=O)[O-])ccc1O [compound 46]
- IC50 (HRV 14; Format 2): 170 ± 100 µM
- Activity (Apopain (caspase-3)): Inhibitor

Structure (SMILES): O=Cc1cc(I)cc(I)c1O [compound 47]
- IC50 (HRV 14; Format 2): 12 ± 2 µM
- Activity (Apopain (caspase-3)): Activator

Structure (SMILES): O=c1cc(-c2ccccc2)oc2cc(O)cc(O)c12 [compound 83]
- IC50 (HRV 14; Format 2): 250 ± 90 µM

Structure (SMILES): O=c1c(O)c(-c2ccc(O)cc2)oc2cc(O)cc(O)c12 [compound 90]
- IC50 (HRV 14; Format 2): 1.2 ± 0.5 µM
- IC50 (HRV 16; Format 2): 7 ± 4 µM
- IC50 (HRV 1A; Format 2): 5 ± 1 µM
- IC50 (HRV 1B): 7 ± 4 µM

Structure (SMILES): O=C(CCc1ccc(O)cc1)c1c(O)cc(O)cc1O [compound 91]
- IC50 (HRV 14; Format 2): 9 ± 4 µM
- IC50 (HRV 16; Format 2): 50 ± 10 µM
- IC50 (HRV 1A; Format 2): 130 ± 14 µM
- IC50 (HRV 1B): 26 ± 15 µM
- Activity (Apopain (caspase-3)): Inhibitor

Structure (SMILES): O=c1cc(-c2ccccc2)oc2c(Cl)c(O)c(Cl)c(O)c12 [compound 100]
- IC50 (HRV 14; Format 2): 27 ± 25 µM

Structure (SMILES): CCCCCC(=O)c1ccc(O)cc1O [compound 114]
- IC50 (HRV 14; Format 2): 40 ± 30 µM
- IC50 (HRV 16; Format 2): 70 ± 60 µM

Structure (SMILES): CCCCCC(=O)c1c(O)c(Cl)c(OC)c(Cl)c1OCC(N)=O [compound 118]
- IC50 (HRV 14; [2]): 380 µM
- IC50 (HRV 1A; Format 1): 81 µM
- CC50 (Hl-Hela cells): 122 ± 6 µM

Structure (SMILES): CCCCCC(=O)c1c(O)cc(O)c(Cl)c1OC [compound 125]
- IC50 (HRV 14; [2]): 45 µM
- IC50 (HRV 16; Format 1): 60 µM
- CC50 (Hl-Hela cells): 50 ± 5 µM

Structure (SMILES): O=C(c1ccccc1O)c1ccccc1O [compound 131]
- IC50 (HRV 14; [2]): 0.6 µM
- IC50 (HRV 14; Format 2): 10 µM and 10.5 µM
- IC50 (HRV 16; Format 2): 0.5 ± 0.4 µM
- IC50 (HRV 1A; Format 2): 43 ± 9 µM

Structure (SMILES): O=C(c1ccccc1)c1ccccc1O [compound 136]
- IC50 (HRV 14; [2]): 6.3 µM
- IC50 (HRV 14; Format 2): 13 ± 5 µM
- IC50 (HRV 16; Format 2): 6 ± 3 µM
- CC50 (Hl-Hela cells): 28 ± 2 µM

Structure (SMILES): O=C(c1ccccc1O)c1cc(Cl)ccc1O [compound 137]
- IC50 (HRV 14; [2]): 0.6 µM
- IC50 (HRV 1A; Format 1): 6.2 µM

Structure (SMILES): O=C(c1ccccc1O)c1cc(Br)ccc1O [compound 142]
- IC50 (HRV 14; Format 2): 59 ± 4 µM
- IC50 (HRV 16; Format 2): 27 ± 27 µM
- IC50 (HRV 1A; Format 2): 25 ± 12 µM

Structure (SMILES): Cc1ccc(O)c(C(=O)c2ccccc2O)c1 [compound 143]
- IC50 (HRV 16; Format 2): 8 ± 8 µM

Structure (SMILES): Cc1cc(O)c(C(=O)c2ccccc2O)cc1Cl [compound 144]
- IC50 (HRV 14; Format 2): 130 ± 40 µM
- IC50 (HRV 16; Format 2): 2.1 ± 1.6 µM

Structure (SMILES): COC(=O)c1c(O)cc(C)cc1O [compound 147]
- IC50 (HRV 16; Format 2): 70 ± 50 µM

Structure (SMILES): C/C=C/c1cc2c(c(=O)o1)C(=O)[C@@H](O)[C@H](C)O2 [radicinin]
- inhibition of the 3C protease (3C protease): lower level of inhibition than thysanone
